Results taken from patent publication US12612411B1, “Imidazopyrazine derivatives, process for preparation thereof, and their uses as luciferins” (INSTITUT PASTEUR, priority 2017, dated 2026).

Molecular target: T1, nanoKAZ luciferase (Oplophorus gracilirostris, UniProt Q9GV45, A31E/A60N/A81I/F95D/I117V/K70R/L54V/L99Q/M102K/N193R/P142E/Q151K/Q38R/Q45L/V71I/Y165I)
T1 construct: luciferase catalytic domain (nanoKAZ, 19 kDa) from the Oplophorus-derived luciferase; host or cells: cell-free: 1-Step Human Coupled IVT Kit, pT7CFE1-based vector
T1 sequence (Q9GV45 other isoform, or with tags, fused parts or gaps with the stated changes): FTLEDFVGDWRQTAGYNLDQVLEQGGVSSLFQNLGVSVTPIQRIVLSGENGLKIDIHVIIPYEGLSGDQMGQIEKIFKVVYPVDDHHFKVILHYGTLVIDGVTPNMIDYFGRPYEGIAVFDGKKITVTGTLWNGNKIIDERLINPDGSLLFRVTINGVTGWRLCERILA
Assay: In vitro bioluminescence screening of imidazo[1,2-a]pyrazin-3(7H)-ones with nanoKAZ expressed in vitro (96-well luminometer, 2 h kinetic)
Format: biochemical
Conditions: Table 1; furimazine = 1
Experimental: General protocol for the generation of solutions of imidazo[1,2-a]pyrazin-3(7H)-one Q by acidic hydrolysis of imidazo[1,2-a]pyrazin-3-yl acetate derivatives P. The considered acetate P (1 mg) was dissolved in DMSO (0.2 mL) and then diluted by adding a solution of acidic ethanol (0.3 ml) made from the addition of 37% hydrochloric acid (100 μl) on 100% ethanol (12 mL). This 0.5 mL solution was incubated at 50° C. for 2 hours to give a stock solution which was then stored at −80° C. […] Nota: these conditions are only adapted to the hydrolysis of the protecting group (as defined above) of the oxygen on position 2 of the imidazo[1,2-a]pyrazine ring system and not to the hydrolysis of any additional acetyl groups eventually present elsewhere on the substrate of this reaction.
The representative bioluminescence curves shown in the FIG. 2 provided an assessment for furimazine (Q-1), 8-benzyl-2-(furan-2-ylmethyl)-6-(4-hydroxyphenyl)imidazo[1,2-a]pyrazin-3 (7/1)-one (Q-80), 8-(2-fluorobenzyl)-2-(furan-2-ylmethyl)-6-phenylimidazo[1,2-a]pyrazin-3(7H)-one (Q-84), and 8-(2-fluorobenzyl)-2-((5-methylfuran-2-yl)methyl)-6-phenylimidazo[1,2-a]pyrazin-3(7H)-one (Q-85) was obtained using a luciferase expressed in vitro as described in the following. The nanoKAZ DNA template was cloned into Thermo Scientific pT7CFE1-based vector and nanoKAZ was expressed using ThermoFisher Scientific 1-Step Human Coupled IVT Kit—DNA (ref. 88881) according to the manufacturer instructions. The resulting reaction mix was diluted 400 times in buffer (DPBS (Gibco)+0.1% (v/v) Tween 20) and conserved at −80° C. The screening of the imidazo[1,2-a]pyrazin-3(7H)-ones was performed in 96 well plates using 50 μL/well of a 1/20 dilution in DPBS (Gibco)+0.1% (v/v) Tween 20 of the nanoKAZ solution.
To illustrate the bioluminescence properties improvement achieved for many of the imidazo[1,2-a]pyrazin-3(7H)-ones described here, four values are provided in Table 1: maximum intensity (V1), signal half-life (V2), area under the curve for ten minutes (V3), and area under the curve for two hours (V4), normalized using furimazine (Q-1) as a reference.
The bioluminescence properties of the tested compounds are considered to be improved when at least one of the values V1-V4 is above 1, and when none of the V1-V4 values is 0.05 or below.
By following the hydrolysis protocol described above, the following imidazo[1,2-a]pyrazin-3(7H)-ones luciferins Q were made in situ from the corresponding O-protected imidazo[1,2-a]pyrazines P and evaluated for their bioluminescence properties (maximum intensity (V1), signal half-life (V2), area under the curve for […], normalized using furimazine (Q-1) as a reference): […]

`O=c1c(Cc2ccc(C3CC3)o2)nc2c(Cc3ccccc3)[nH]c(-c3ccccc3)cn1-2` [Q-36, 8-benzyl-2-((5-cyclopropylfuran-2-yl)methyl)-6-phenylimidazo[1,2-a]pyrazin-3(7H)-one] was tested, and the “V1: maximum intensity, normalized using furimazine (Q-1) as a reference” value (“V1: maximum intensity, normalized” for short) was 1.74, the “V3: area under the curve for ten minutes, normalized using furimazine (Q-1) as a reference” value was 1.64 and the “V4: area under the curve for two hours, normalized using furimazine (Q-1) as a reference” value was 0.83.

`O=c1c(Cc2cccc(F)c2)nc2c(Cc3ccccc3)[nH]c(-c3ccccc3)cn1-2` [Q-41, 8-benzyl-2-(3-fluorobenzyl)-6-phenylimidazo[1,2-a]pyrazin-3(7H)-one] was tested, and the “V1: maximum intensity, normalized” value was 1.49, the “V3: area under the curve for ten minutes, normalized using furimazine (Q-1) as a reference” value was 1.28 and the “V4: area under the curve for two hours, normalized using furimazine (Q-1) as a reference” value was 0.74.

In the case of `CCc1ccc(Cc2nc3c(Cc4ccccc4)[nH]c(-c4ccccc4F)cn-3c2=O)o1` [Q-51, 8-benzyl-2-((5-ethylfuran-2-yl)methyl)-6-(2-fluorophenyl)imidazo[1,2-a]pyrazin-3(7H)-one], the “V1: maximum intensity, normalized” value was 2.59, the “V3: area under the curve for ten minutes, normalized using furimazine (Q-1) as a reference” value was 2.33 and the “V4: area under the curve for two hours, normalized using furimazine (Q-1) as a reference” value was 1.19.

`Cc1ccc(Cc2nc3c(Cc4ccccc4)[nH]c(-c4cccc(F)c4)cn-3c2=O)o1` [Q-54, 8-benzyl-6-(3-fluorophenyl)-2-((5-methylfuran-2-yl)methyl)imidazo[1,2-a]pyrazin-3(7H)-one] was tested, and the “V1: maximum intensity, normalized” value was 2.73, the “V3: area under the curve for ten minutes, normalized using furimazine (Q-1) as a reference” value was 2.32 and the “V4: area under the curve for two hours, normalized using furimazine (Q-1) as a reference” value was 1.22.

With `O=c1c(Cc2ccccc2F)nc2c(Cc3ccccc3)[nH]c(-c3ccccc3)cn1-2` [Q-56, 8-benzyl-2-(2-fluorobenzyl)-6-phenylimidazo[1,2-a]pyrazin-3(7H)-one] the “V1: maximum intensity, normalized” value was 1.84, the “V3: area under the curve for ten minutes, normalized using furimazine (Q-1) as a reference” value was 1.51 and the “V4: area under the curve for two hours, normalized using furimazine (Q-1) as a reference” value was 0.7.

For `CCc1ccc(Cc2nc3c(Cc4ccccc4)[nH]c(-c4ccccc4)cn-3c2=O)s1` [Q-58, 8-benzyl-2-((5-ethylthiophen-2-yl)methyl)-6-phenylimidazo[1,2-a]pyrazin-3(7H)-one], the “V1: maximum intensity, normalized” value was 1.71, the “V3: area under the curve for ten minutes, normalized using furimazine (Q-1) as a reference” value was 1.61 and the “V4: area under the curve for two hours, normalized using furimazine (Q-1) as a reference” value was 0.69.

`Cc1cc(Cc2nc3c(Cc4ccccc4)[nH]c(-c4ccccc4F)cn-3c2=O)oc1C` [Q-61, 8-benzyl-2-((4,5-dimethylfuran-2-yl)methyl)-6-(2-fluorophenyl)imidazo[1,2-a]pyrazin-3(7H)-one] was tested, and the “V1: maximum intensity, normalized” value was 2.13, the “V3: area under the curve for ten minutes, normalized using furimazine (Q-1) as a reference” value was 1.97 and the “V4: area under the curve for two hours, normalized using furimazine (Q-1) as a reference” value was 0.78.

`O=c1c(Cc2ccccc2)nc2c(Cc3ccccc3F)[nH]c(-c3ccccc3)cn1-2` [Q-72, 2-benzyl-8-(2-fluorobenzyl)-6-phenylimidazo[1,2-a]pyrazin-3(7H)-one] was tested, and the “V1: maximum intensity, normalized” value was 1.49, the “V3: area under the curve for ten minutes, normalized using furimazine (Q-1) as a reference” value was 1.49 and the “V4: area under the curve for two hours, normalized using furimazine (Q-1) as a reference” value was 0.85.

For `O=c1c(Cc2ccccc2)nc2c(Cc3cccc(F)c3)[nH]c(-c3ccccc3)cn1-2` [Q-73, 2-benzyl-8-(3-fluorobenzyl)-6-phenylimidazo[1,2-a]pyrazin-3(7H)-one], the “V1: maximum intensity, normalized” value was 1.12, the “V3: area under the curve for ten minutes, normalized using furimazine (Q-1) as a reference” value was 1.19 and the “V4: area under the curve for two hours, normalized using furimazine (Q-1) as a reference” value was 0.92.

In the case of `O=c1c(Cc2ccccc2)nc2c(Cc3ccccc3)[nH]c(-c3ccc(O)cc3)cn1-2` [Q-75, 2,8-dibenzyl-6-(4-hydroxyphenyl)imidazo[1,2-a]pyrazin-3(7H)-one, reference compound], the “V1: maximum intensity, normalized” value was 2.03, the “V3: area under the curve for ten minutes, normalized using furimazine (Q-1) as a reference” value was 0.45 and the “V4: area under the curve for two hours, normalized using furimazine (Q-1) as a reference” value was 0.11.
